Data as given in patent publication US10449186B2, “Phenylethynyl-substituted benzenes and heterocycles for the treatment of cancer” (UNIVERSITY OF KENTUCKY RESEARCH FOUNDATION, priority 2017, dated 2019).
Structures can show the parent of a compound that is named as a salt. Where two headings read alike, the source gives them in different places.

Assays:
[1] = system: LS174T colon cancer cells; experiment: LS174T cell proliferation assay; assay type: cell-based; set-up: effects on LS174T colon cancer cell proliferation (Table 3): unit not given here; conditions: for inhibition at 1 µM / inhibition at 10 µM / inhibition at 0.1 µM: Homo sapiens, LS174T
Protocol: Cell proliferation assay. LS174T cells were grown in RPMI medium (Mediatech) supplemented with 5% fetal bovine serum and 1% penicillin/streptomycin. For cell proliferation assays, 3×10^4 cells/well growing in 12-well plates were treated with DMSO or inhibitors. The cell numbers and viability were analyzed by Vi-Cell Cell Viability Analyzer after 4 days. The IC50 values were calculated with GraphPad Prim 5.

[2] = read-out: inhibition of cell proliferation (%) of colon cancer LS174T cells
[3] = Table 1, 1 μM, read-out: inhibition of proliferation (%) of colon cancer LS174T cells
[4] = Table 1, 10 μM, read-out: inhibition of proliferation (%) of colon cancer LS174T cells
[5] = Table 2, 100 nM, read-out: inhibition of cell proliferation (%) of colon cancer LS174T cells
[6] = Table 2, 1 μM, read-out: inhibition of cell proliferation (%) of colon cancer LS174T cells
[7] = Table 2, 10 μM, read-out: inhibition of cell proliferation (%) of colon cancer LS174T cells
[8] = read-out: inhibition of LS174T colon cancer cell proliferation
[9] = 1 μM, read-out: inhibition of LS174T colon cancer cell proliferation

| Compound | melting point [°C] | inhibition at 1 µM [1, 2] [%] | inhibition at 10 µM [1, 2] [%] | inhibition at 1 µM [1, 6] [%] | inhibition at 10 µM [1, 7] [%] | other results |
| --- | --- | --- | --- | --- | --- | --- |
| Fc1cccc(F)c1C#Cc1cccc2cccnc12 [Compound 5y, 8-((2,6-Difluorophenyl)ethynyl)quinoline] | 108 to 110 | 47.6 ± 3.5 | 92.7 ± 2.9 | – | – | – |
| Fc1cccc(F)c1C#Cc1ccc2nc(Cl)ccc2c1 [Compound 5z, 2-Chloro-6-((2,6-difluorophenyl)ethynyl)quinoline] | 137 to 138 | 21.2 ± 11.4 | 63.3 ± 2.3 | – | – | – |
| Cc1ccc(C)n1-c1ccc(C#Cc2c(F)cccc2F)cc1 [Compound 4e, 1-(4-((2,6-Difluorophenyl)ethynyl)phenyl)-2,5-dimethyl-1H-pyrrole] | 124 to 126 | – | – | – | – | inhibition at 1 µM [1, 3]: 20.9%; inhibition at 10 µM [1, 4]: 78.8% |
| Fc1cccc(F)c1C#Cc1cnc2ccccc2c1Cl [Compound 5q, 4-Chloro-3-((2,6-difluorophenyl)ethynyl)quinoline] | 140 to 142 | – | – | 51.5 ± 20.4 | 80.4 ± 13.7 | inhibition at 0.1 µM [1, 5]: 0% |
| Fc1cccc(F)c1C#Cc1cncc2ccccc12 [Compound 5hh, 4-((2,6-Difluorophenyl)ethynyl)isoquinoline] | 102 to 104 | – | – | 16.5 ± 2.1 | 87.9 ± 1 | – |
| Fc1cccc(F)c1C#Cc1cnc2ccccc2c1 [Compound 5n, 3-((2,6-Difluorophenyl)ethynyl)quinoline] | 115 to 117 | 41.7 ± 6.5 | 90.4 ± 1 | – | – | inhibition at 0.1 µM [1, 2]: 0% |
| CN(C)c1ccc2cc(C#Cc3c(F)cccc3F)ccc2n1 [Compound 5ee, 6-((2,6-Difluorophenyl)ethynyl)-N,N-dimethylquinolin-2-amine] | 142 to 144 | 2 ± 11.9 | 38.7 ± 4.3 | – | – | – |
| Fc1cccc(F)c1C#Cc1ccc2cn[nH]c2c1 [Compound 5i, 6-((2,6-Difluorophenyl)ethynyl)-1H-indazole] | 192 to 194 | 81.5 ± 2.9 | 97 ± 1.1 | – | – | inhibition at 1 µM [1, 8]: > 75% |
| Fc1cccc(F)c1C#Cc1cnc(Cl)c2ccccc12 [Compound 5kk, 1-Chloro-4-((2,6-difluorophenyl)ethynyl)isoquinoline] | 145 to 146 | 48.1 ± 18.1 | 94 ± 0.5 | – | – | inhibition at 0.1 µM [1, 2]: 0.8 ± 36.1% |
| Fc1cccc(F)c1C#Cc1ccc2[nH]ccc2c1 [Compound 5e, 5-((2,6-Difluorophenyl)ethynyl)-1H-indole] | 131 to 133 | – | – | 52.9 ± 5.9 | 91.5 ± 3.5 | – |
| CN1CCN(c2ncc(C#Cc3c(F)cccc3F)c3ccccc23)CC1 (as salt: hydrochloride) [Compound 5pp, 4-((2,6-Difluorophenyl)ethynyl)-1-(4-methylpiperazin-1-yl)isoquinoline] | 70 to 72 | – | – | – | – | – |
| Fc1cccc(F)c1C#Cc1ccc(N2CCOCC2)cc1 [Compound 4b, 4-(4-((2,6-Difluorophenyl)ethynyl)phenyl)morpholine] | 144 to 145 | – | – | – | – | inhibition at 1 µM [1, 3]: 13%; inhibition at 10 µM [1, 4]: 32.1% |
| Cn1ncc2cc(C#Cc3c(F)cccc3F)ccc21 [Compound 5j, 5-((2,6-difluorophenyl)ethynyl)-1-methyl-1H-indazole] | 107 to 109 | – | – | 58.4 ± 9.6 | 94.6 ± 3.5 | inhibition at 0.1 µM [1, 5]: 0% |
| Fc1cccc(F)c1C#Cc1nccc2ccccc12 [Compound 5gg, 1-((2,6-Difluorophenyl)ethynyl)isoquinoline] | 120 to 122 | – | – | 35.4 ± 15 | 96.7 ± 0.2 | – |
| Fc1cccc(F)c1C#Cc1cnc2[nH]ccc2c1 [Compound 5l, 5-((2,6-Difluorephenyl)ethynyl)-1H-pyrrolo[2,3-b]pyridine] | – | – | – | – | – | inhibition of cell proliferation (%) of colon cancer LS174T cells ([1]; Table 2, 1 μM): 17.3 ± 12.0%; inhibition of cell proliferation (%) of colon cancer LS174T cells ([1]; Table 2, 10 μM): 77.9 ± 8.9% |
| Cn1ccc2cc(C#Cc3c(F)cccc3F)ccc21 [Compound 5f, 5-((2,6-Difluorophenyl)ethynyl)-1-methyl-1H-indole] | – | – | – | 77.7 ± 13.6 | 95.2 ± 1 | inhibition at 1 µM [1, 9]: > 75%; inhibition at 0.1 µM [1, 5]: 3 ± 5.6% |
| Fc1cccc(F)c1C#Cc1ccc2c(Cl)ccnc2c1 [Compound 5bb, 4-Chloro-7-((2,6-difluorophenyl)ethynyl)quinoline] | 148 to 150 | – | – | 23.1 ± 8.3 | 70.8 ± 4.8 | – |
| Fc1cccc(F)c1C#Cc1ccnc2cc(Cl)ccc12 [Compound 5u, 7-Chloro-4-((2,6-difluorophenyl)ethynyl)quinoline] | 130 to 132 | 36 ± 0.4 | 74.3 ± 0.2 | – | – | – |
| Nc1ccnc2ccc(C#Cc3c(F)cccc3F)cc12 [Compound 5cc, 6-((2,6-Difluorophenyl)ethynyl)quinolin-4-amine] | 220 to 222 | – | – | 66.2 ± 3.1 | 93.9 ± 0.4 | inhibition at 0.1 µM [1, 5]: 0% |
| CN(C)c1ccnc2ccc(C#Cc3c(F)cccc3F)cc12 [Compound 5ff, 6-((2,6-Difluorophenyl)ethynyl)-N,N-dimethylquinolin-4-amine] | 118 to 120 | 81.3 ± 1.4 | 95.5 ± 2 | – | – | inhibition at 1 µM [1, 8]: > 75%; inhibition at 0.1 µM [1, 2]: 0% |
| Fc1cccc(F)c1C#Cc1ccc(-n2cccc2)nc1 [Compound 5c, 5-((2,6-Difluorophenyl)ethynyl)-2-(1H-pyrrol-1-yl)pyridine] | 121 to 123 | 80.5 ± 6.6 | 95.3 ± 0.8 | – | – | inhibition at 1 µM [1, 8]: > 75%; inhibition at 0.1 µM [1, 2]: 0% |
| Cn1ncc2ccc(C#Cc3c(F)cccc3F)cc21 [Compound 5k, 6-((2,6-Difluorophenyl)ethynyl)-1-methyl-1H-indazole] | 117 to 119 | – | – | 85.9 ± 5.4 | 98.1 ± 0.4 | inhibition at 1 µM [1, 9]: > 75%; inhibition at 0.1 µM [1, 5]: 0% |
| Nc1ccc(C#Cc2c(F)cncc2F)cc1 [Compound 7b, 4-((3,5-Difluoropyridin-4-yl)ethynyl)aniline] | 156 to 158 | – | – | – | – | effects on LS174T colon cancer cell proliferation (Table 3) ([1]; 30 nM): 11.4; effects on LS174T colon cancer cell proliferation (Table 3) ([1]; 100 nM): 30.5; effects on LS174T colon cancer cell proliferation (Table 3) ([1]; 300 nM): 36.2 |
| CN(C)c1ccc(C#Cc2c(F)cccc2F)cn1 [Compound 5b, 5-((2,6-Difluorophenyl)ethynyl)-N,N-dimethylpyridin-2-amine] | 110 to 112 | – | – | 77.9 ± 7 | 83.6 ± 7.8 | inhibition at 1 µM [1, 9]: > 75%; inhibition at 0.1 µM [1, 5]: 0% |
| Nc1ccc2ncc(C#Cc3c(F)cccc3F)cc2c1 [Compound 5r, 3-((2,6-Ditfluorophenyl)ethynyl)quinolin-6-amine] | – | – | – | – | – | inhibition of cell proliferation (%) of colon cancer LS174T cells ([1]; Table 2, 10 μM): 9.2 ± 15.7% |
| Fc1cccc(F)c1C#Cc1ccc2nccc(Cl)c2c1 [Compound 5aa, 4-Chloro-6-((2,6-difluorophenyl)ethynyl)quinoline] | 120 to 122 | – | – | 43.8 ± 10.8 | 89.7 ± 4.3 | – |
| CN(C)c1ccc(C#Cc2c(F)cncc2F)cc1 [Compound 7d, 4-((3,5-Difluoropyridin-4-yl)ethynyl)-N,N-dimethylaniline] | – | – | – | – | – | effects on LS174T colon cancer cell proliferation (Table 3) ([1]; 30 nM): 16.7; effects on LS174T colon cancer cell proliferation (Table 3) ([1]; 100 nM): 20.4; effects on LS174T colon cancer cell proliferation (Table 3) ([1]; 300 nM): 60.6 |
